Where a name gives a salt, the structure may show the parent alone. Read-outs that look alike come from different tables or passages of the source.
Key:
human 5-HT2AR = human 5-HT2AR (Homo sapiens, UniProt P28223); experiment: Ca2+/Fluo-4 assay, agonist mode, stable 5-HT2AR-HEK293 cells; details: for 5-HT2AR Rmax (%): % of the 5-HT Rmax; for 5-HT2AR Rmax ± S.E.M.: % of the 5-HT Rmax on the same 96-well plate
human 5-HT2CR = human 5-HT2CR (Homo sapiens, UniProt P28335); experiment: Ca2+/Fluo-4 assay, agonist mode, stable 5-HT2CR-HEK293 cells; details: for 5-HT2CR Rmax ± S.E.M.: % of the 5-HT Rmax on the same 96-well plate; for 5-HT2CR Rmax (%): % of the 5-HT Rmax
human 5-HT2CR, sequence (P28335 33-458): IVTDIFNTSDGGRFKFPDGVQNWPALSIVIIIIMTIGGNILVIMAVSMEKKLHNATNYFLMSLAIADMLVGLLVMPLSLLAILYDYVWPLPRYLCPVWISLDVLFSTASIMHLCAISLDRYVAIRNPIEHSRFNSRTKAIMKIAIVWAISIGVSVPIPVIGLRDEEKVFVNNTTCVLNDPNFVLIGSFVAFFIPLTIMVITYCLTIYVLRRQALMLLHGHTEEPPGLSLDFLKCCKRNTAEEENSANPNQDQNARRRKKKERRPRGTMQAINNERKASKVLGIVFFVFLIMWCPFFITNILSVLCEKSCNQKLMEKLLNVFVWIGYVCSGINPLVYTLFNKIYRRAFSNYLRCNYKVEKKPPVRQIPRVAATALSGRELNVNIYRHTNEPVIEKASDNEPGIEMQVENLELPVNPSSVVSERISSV

[1] = read-out: 5-HT2AR EC50, Table 2, at least 3 independent experiments
[2] = 5-HT2CR EC50 (nM), Table 2, at least 3 independent experiments
[3] = read-out: 5-HT2AR EC50, Table 1, at least 3 independent experiments
[4] = read-out: 5-HT2CR EC50, Table 1, at least 3 independent experiments
[5] = read-out: 5-HT2CR EC50, Table 2, at least 3 independent experiments

human 5-HT2AR, sequence (P28223 whole entry): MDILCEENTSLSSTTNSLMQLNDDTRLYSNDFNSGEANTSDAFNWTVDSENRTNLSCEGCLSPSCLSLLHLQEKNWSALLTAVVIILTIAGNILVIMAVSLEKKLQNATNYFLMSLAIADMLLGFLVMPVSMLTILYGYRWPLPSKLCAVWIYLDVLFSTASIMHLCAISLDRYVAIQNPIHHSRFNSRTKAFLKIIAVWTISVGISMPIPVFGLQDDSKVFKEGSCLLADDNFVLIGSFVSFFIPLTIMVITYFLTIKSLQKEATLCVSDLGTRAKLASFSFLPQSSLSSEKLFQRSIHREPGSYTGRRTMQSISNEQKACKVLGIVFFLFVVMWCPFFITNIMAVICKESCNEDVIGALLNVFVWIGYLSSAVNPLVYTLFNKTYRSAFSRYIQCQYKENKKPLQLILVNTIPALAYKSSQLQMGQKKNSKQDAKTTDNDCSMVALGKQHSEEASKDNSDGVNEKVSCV

Structure (SMILES) | 5-HT2AR Rmax (%) (human 5-HT2AR; Table 2) | 5-HT2AR pEC50 ± S.E.M. (human 5-HT2AR; Table S2) | 5-HT2AR Rmax ± S.E.M. (human 5-HT2AR; Table S2) [%] | EC50 (human 5-HT2CR; [2]) [nM] | EC50 (human 5-HT2AR; [3]) [nM] | 5-HT2CR pEC50 ± S.E.M. (human 5-HT2CR; Table S2) | EC50 (human 5-HT2CR; [4]) [nM] | 5-HT2CR Rmax ± S.E.M. (human 5-HT2CR; Table S2) [%] | other results
CCOc1cc(C2CCCNC2)c(OC)cc1C(F)(F)F.Cl (stereo not shown) [Compound 25dis, 3-(5-Ethoxy-2-methoxy-4-(trifluoromethyl)phenyl)piperidine Hydrochloride] | 86 | 6.50 ± 0.10 | 86 ± 6 | > 10000 | – | – | – | – | EC50 (human 5-HT2AR; [1]): 320 nM
CCc1cc(OC)c(C2CCCNC2)cc1OC.Cl (stereo not shown) [Compound 13eu, 3-(4-Ethyl-2,5-dimethoxyphenyl)piperidine Hydrochloride] | – | 7.39 ± 0.11 | – | – | 41 | 6.42 ± 0.12 | 380 | – | agonist activity at 5-HT2CR (in words) (human 5-HT2CR): measurable agonist activity
CCOc1cc(C(F)(F)F)c(OCC)cc1C1CCCNC1.Cl (stereo not shown) [Compound 26eu, 3-(2,5-Diethoxy-4-(trifluoromethyl)phenyl)piperidine Hydrochloride] | 47 | 6.99 ± 0.07 | 47 ± 6 | > 10000 | – | – | – | – | EC50 (human 5-HT2AR; [1]): 100 nM; fold drop in agonist potency (fold higher EC50) at 5-HT2AR (human 5-HT2AR; relative to (S)-11): 30 fold
COc1cc(C2CNC2)c(OC)cc1Br [Compound 4, 3-(4-Bromo-2,5-dimethoxyphenyl)azetidine Hydrochloride] | – | 8.80 ± 0.10 | 97 ± 3 | – | 1.6 | 8.24 ± 0.07 | 5.2 | 90 ± 3 | 5-HT2AR Rmax (%) (human 5-HT2AR; Table 1): 97 ± 3%
Cl.FC(F)(F)c1ccc(C2CCCNC2)cc1 (stereo not shown) [Compound 21, 3-(4-(Trifluoromethyl)phenyl)piperidine Hydrochloride] | – | – | – | > 10000 | – | – | – | – | agonist activity at 5-HT2AR (in words) (human 5-HT2AR): negligible agonist activity; EC50 (human 5-HT2AR; 5-HT2AR EC50 (nM), Table 2, at least 3 independent experiments): > 10000 nM; agonist activity at 5-HT2CR (in words) (human 5-HT2CR): negligible agonist activity
COc1cc(C2CCCNC2)ccc1C(F)(F)F.Cl (stereo not shown) [Compound 23dis, 3-(3-Methoxy-4-(trifluoromethyl)phenyl)piperidine Hydrochloride] | 65 | 5.61 ± 0.07 | 65 ± 3 | – | – | 5.85 ± 0.13 | – | 35 ± 3 | EC50 (human 5-HT2AR; [1]): 2500 nM; 5-HT2CR Rmax (%) (human 5-HT2CR; Table 2): 35%; EC50 (human 5-HT2CR; [5]): 1400 nM
Br.COc1cc(C2CCNC2)c(OC)cc1Br (stereo not shown) [Compound 5dis, 3-(4-Bromo-2,5-dimethoxyphenyl)pyrrolidine Hydrobromide] | – | 8.11 ± 0.08 | 39 ± 4 | – | 7.7 | 7.75 ± 0.08 | 18 | 16 ± 3 | 5-HT2AR Rmax (%) (human 5-HT2AR; Table 1): 39 ± 4%; Rmax at 5-HT2CR (human 5-HT2CR): 73%; 5-HT2CR Rmax (%) (human 5-HT2CR; Table 1): 16 ± 3%
CCOc1cc(C2CCCNC2)c(OC)cc1C(F)(F)F.Cl (stereo not shown) [Compound 25eu, 3-(5-Ethoxy-2-methoxy-4-(trifluoromethyl)phenyl)piperidine Hydrochloride] | 95 | 7.99 ± 0.11 | 95 ± 1 | – | – | 6.54 ± 0.04 | – | – | EC50 (human 5-HT2AR; [1]): 10 nM; EC50 (human 5-HT2CR; [5]): 290 nM
CCN1CCC[C@@H](c2cc(OC)c(C(F)(F)F)cc2OC)C1 [(S)-20, (S)-3-(2,5-Dimethoxy-4-(trifluoromethyl)phenyl)-1-ethylpiperidine] | 44 | 5.82 ± 0.08 | 44 ± 3 | > 10000 | – | – | – | – | –
COc1cc(C(F)(F)F)c(OC)cc1[C@H]1CCCN(C)C1 [(R)-19, (R)-3-(2,5-Dimethoxy-4-(trifluoromethyl)phenyl)-1-methylpiperidine] | 53 | 5.96 ± 0.09 | 53 ± 8 | > 10000 | – | – | – | – | –
COc1cc(C(F)(F)F)c(OC)cc1CCN [Compound 18, 2-(2,5-Dimethoxy-4-(trifluoromethyl)phenyl)ethan-1-amine Hydrochloride, reference compound] | 67 | – | 67 ± 5 | – | – | – | – | 71 ± 2 | EC50 (human 5-HT2AR; 5-HT2AR pEC50 ± S.E.M., Table S2): 0.724 nM; fold higher agonist potency at 5-HT2AR than at 5-HT2CR (selectivity) (human 5-HT2AR; 5-HT2AR vs 5-HT2CR): 10 fold; EC50 (human 5-HT2CR; 5-HT2CR pEC50 ± S.E.M., Table S2): 7.59 nM; 5-HT2CR Rmax (%) (human 5-HT2CR; Table 2): 71%
CCSc1cc(OC)c(C2CCCNC2)cc1OC.Cl (stereo not shown) [Compound 16eu, 3-(2,5-Dimethoxy-4-(ethylthio)phenyl)piperidine Hydrochloride] | – | 7.42 ± 0.09 | – | – | 38 | 6.25 ± 0.08 | 570 | – | –
Br.COc1cc(C2CCNC2)c(OC)cc1Br (stereo not shown) [Compound 5eu, 3-(4-Bromo-2,5-dimethoxyphenyl)pyrrolidine Hydrobromide] | – | 8.28 ± 0.07 | 57 ± 3 | – | 5.3 | 7.59 ± 0.03 | 26 | 73 ± 3 | 5-HT2AR Rmax (%) (human 5-HT2AR; Table 1): 57 ± 3%; Rmax at 5-HT2CR (human 5-HT2CR): 16%; 5-HT2CR Rmax (%) (human 5-HT2CR; Table 1): 73 ± 3%
COc1cc(C2CCCNC2)c(OC)cc1C.Cl (stereo not shown) [Compound 12dis, 3-(2,5-Dimethoxy-4-methylphenyl)piperidine Hydrochloride] | – | 6.58 ± 0.06 | – | – | 260 | 5.92 ± 0.08 | 1200 | – | –
COc1cc(C(F)(F)F)c(OC)cc1[C@@H]1CCCN(C)C1 [(S)-19, (S)-3-(2,5-Dimethoxy-4-(trifluoromethyl)phenyl)-1-methylpiperidine] | 19 | – | 19 ± 2 | – | – | 6.04 ± 0.03 | – | – | –
